Reference: US7514251B2, “O-methyltransferases of tetrahydrobenzylisoquinoline alkaloid biosynthesis in Papaver somniferum” (priority 2003, dated 2009)
Where two headings read alike, the source gives them in different places.

Columns and labels:
Type in all cases: biochemical
[1] = molecular target: T1, PSOMT2 ((R,S)-norcoclaurine 6-O-methyltransferase) (Papaver somniferum, UniProt Q6WUC1); assay: Radioassay of recombinant PSOMT2 with [methyl-3H]-AdoMet (substrate specificity, kinetics, pH and temperature optima)
T1 construct: The full-length cDNA generated by RT-PCR was ligated into pFastBac HTa; His6 (N); made in house; host or cells: Spodoptera frugiperda Sf9 (baculovirus, pFastBac HTa)
T1 sequence (Q6WUC1 1-346): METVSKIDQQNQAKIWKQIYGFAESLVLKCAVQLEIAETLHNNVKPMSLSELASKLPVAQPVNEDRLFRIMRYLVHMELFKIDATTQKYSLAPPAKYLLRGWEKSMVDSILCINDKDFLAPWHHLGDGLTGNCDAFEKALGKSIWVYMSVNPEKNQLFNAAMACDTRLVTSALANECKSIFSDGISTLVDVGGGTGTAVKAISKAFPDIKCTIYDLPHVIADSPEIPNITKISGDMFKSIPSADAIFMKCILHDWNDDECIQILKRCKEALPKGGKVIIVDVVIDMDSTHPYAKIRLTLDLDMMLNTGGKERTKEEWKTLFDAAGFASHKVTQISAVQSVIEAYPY
Source text: (§1) Heterologous Expression and Enzyme Purification—The full-length cDNA generated by RT-PCR was ligated into pFastBac HTa that had been digested with restriction endonucleases BamHI and NotI. The recombinant plasmid was transposed into baculovirus DNA in the Escherichia coli strain DH10BAC (Life Technologies) and then transfected into Spodoptera frugiperda Sf9 cells according to the manufacturer's instructions. The insect cells were propagated and the recombinant virus was amplified according to (16,17). INSECT-XPRESS serum-free medium (Bio Whittaker) was used in the enzyme expression experiments.
(§2) After infection of 20 ml suspension grown insect cells had proceded for 3-4 days at 28° C. and 130 rpm, the cells were removed by centrifugation under sterile conditions at 900× g for 5 min at 4° C. All subsequent steps were performed at 4° C. The pellet was discarded and to the medium was added 0.73 g NaCl, 2.5 ml glycerol and 50 μl […]-mercaptoethanol. The pH was adjusted to 7.0 with 1.0 M NaOH. The His-tagged O-methyltransferase was then purified by affinity chromatography using a cobalt resin (Talon, Clontech) according to the manufacturer's instructions.
(§3) Enzyme assay and product identification: The O-methylation reactions catalysed by the two O-methyltransferases were assayed at least two times in duplicate according to Rüffer et al. (1983a; 1983b) as follows. Substrate (25 nmol), [methyl-3H]-AdoMet (20,000 dpm, 0.4 fmol), AdoMet (10 nmol) Tris/HC1 buffer pH 8.0 (10 μmol), ascorbate (5 μmol) and 5-10 μg of enzyme were incubated in a total volume of 150 μl at 35° C. for 5-60 min. The enzymic reaction was terminated by addition of 200 μl ethylacetate. The organic phase ([…]) was added to 3 ml high flash point liquid scintillation cocktail (Packard) and the radioactivity quantified with a Beckman LS6000TA liquid scintillation counter.
(§4) General Methods—Total RNA was isolated and RNA gels were run and blotted as described previously (20). Genomic DNA was isolated and DNA gels were run and blotted according to (21). cDNA clones were labeled by PCR labeling with [[…]-^32P]dATP. Hybridized RNA on RNA gel blots and DNA on DNA gel blots were visualized with a STORM phosphor imager (Molecular Dynamics). The entire nucleotide sequence on both DNA strands of the full-length clone was determined by dideoxy cycle sequencing using internal DNA sequences for the design of deoxyoligonucleotides as sequencing primers. Saturation curves and double reciprocal plots were constructed with the Fig. P program Version 2.7 (Biosoft, Cambridge, UK). The influence of pH on enzyme activity was monitored in sodium citrate (pH 4-6), sodium phosphate (pH 6-7.0) and Tris-HCl (pH 7.0-9), glycine/NaOH (pH 9-10.5) buffered solutions.

[2] = molecular target: T1, PSOMT2 ((R,S)-norcoclaurine 6-O-methyltransferase); assay: HPLC-MS identification of enzymic products of PSOMT2; conditions: HPLC-MS of enzymic product
Procedure: (§5) The identity of the enzymic reaction products was ascertained by HPLC-MS using a Finnigan MAT TSQ 7000 (electrospray voltage 4.5 kV, capillary temperature 220° C., carrier gas N2) coupled to a Micro-tech Ultra-Plus Micro-LC equipped with an Ultrasep RP18 column; 5 μm; 1×10 mm), Solvent system (A) 99.8% (v/v) H2O, 0.2% HOAc (B) 99.8% CH3CN (v/v), 0.2% HOAc; gradient: 0-15 min 10-90% B, 15-25 min 90% B; flow 70 μl min^−1). The collision-induced dissociation (CID; collision energy, −25 eV; collision gas, argon; collision pressure, 1.8×10^−3 Torr) mass spectra for the tetrahydrobenzylisoquinoline alkaloids were recorded.
(§6) Structure Elucidation of Enzymic Products—Initial enzyme activity measurements were carried out using a radioassay. Many of the substrates tested contained more than one site of potential methylation. […] Tetrahydrobenzylisoquinolines readily cleave at low ionization energies into the corresponding isoquinoline- and benzyl ions. This enables identification of methylation at either moiety. Each alkaloidal substrate was monitored for purity by HLPC-MS and the fragmentation pattern was determined. Enzymic product fragmentation patterns were then compared to those of substrate. All substrates were methylated by either PSOMT1 or PSOMT2 on the isoquinoline moiety. For example, (R)- or (S)-reticuline ([M+H]^+ m/z 330) has the major fragment ions m/z 192 (isoquinoline) and m/z 137 (benzyl). The methylation of (R)- or (S)-reticuline by PSOMT1 results in a product of [M+H]^+ m/z 344 (methylated (R)- or (S)-reticuline) with fragment ions at m/z 206 (isoquinoline+CH2) and m/z 137 (unmodified benzyl). Likewise, (R,S)-norcoclaurine ([M+H]^+ m/z 272) has the major fragment ions m/z 161 (isoquinoline) and m/z 107 (benzyl). The methylation of (R,S)-norcoclaurine by PSOMT2 results in a product of [M+H]^+ m/z 286 (methylated (R,S)-norcoclaurine) with fragment ions at m/z 175 (isoquinoline+CH2) and m/z 107 (unmodified benzyl).

[3] = molecular target: T2, PSOMT1 ((R,S)-reticuline 7-O-methyltransferase) (Papaver somniferum, UniProt Q6WUC2); assay: HPLC-MS identification of enzymic products of PSOMT1; conditions: HPLC-MS of enzymic product
T2 construct: The full-length cDNA generated by RT-PCR was ligated into pFastBac HTa; His6 (N); made in house; host or cells: Spodoptera frugiperda Sf9 (baculovirus, pFastBac HTa)
T2 sequence (Q6WUC2 whole entry): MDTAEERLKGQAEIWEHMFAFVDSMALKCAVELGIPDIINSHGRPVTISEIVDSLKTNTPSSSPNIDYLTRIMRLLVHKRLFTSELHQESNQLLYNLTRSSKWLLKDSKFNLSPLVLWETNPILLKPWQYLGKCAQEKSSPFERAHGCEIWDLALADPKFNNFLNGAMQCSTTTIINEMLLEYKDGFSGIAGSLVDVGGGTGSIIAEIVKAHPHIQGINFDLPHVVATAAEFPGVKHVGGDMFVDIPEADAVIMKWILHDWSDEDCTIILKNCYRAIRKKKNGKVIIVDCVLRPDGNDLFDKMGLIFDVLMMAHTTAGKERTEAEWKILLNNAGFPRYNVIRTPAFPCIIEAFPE
Procedure: as §5, §6

[4] = molecular target: T2, PSOMT1 ((R,S)-reticuline 7-O-methyltransferase)
Source text: as §1, §2, §3, §4

COc1cc(CC2c3cc(OC)c(O)cc3CCN2C)ccc1O (racemic) [(R,S)-Isoorientaline]
Substrate specificity, relative activity of PSOMT2 ([1]; 100% activity = 2.0 pmoles/sec/mg total protein, radioassay): 47%
Vmax Substrate ([1]; PSOMT2): 2 pmol/s
kcat Substrate ([1]; PSOMT2): 0.03 s⁻¹
pH optimum of methyl transfer ([1]; PSOMT2): 7.5
Km ([1]; PSOMT2, co-substrate AdoMet with the named substrate, read-out: Km AdoMet): 280 µM
Km ([1]; PSOMT2, read-out: Km Substrate): 29 µM
methylated by PSOMT2 (radioassay, in words) ([1]; one of forty substrates tested): methylating
position of O-methylation by PSOMT2 [2]: at C-6
position of O-methylation by PSOMT1 [3]: O-methylated by PSOMT1 at C-6
Substrate specificity, relative activity of PSOMT1 ([4]; 100% activity = 1.5 pmoles/sec/mg total protein, radioassay): 46%
Vmax Substrate ([4]; PSOMT1): 1 pmol/s
kcat Substrate ([4]; PSOMT1): 0.02 s⁻¹
pH optimum of methylation ([4]; PSOMT1): 7.5-9.0
ratio kcat/Km ([4]; PSOMT1): 1.44 s⁻¹ mM⁻¹
Km ([4]; PSOMT1, co-substrate AdoMet with the named substrate, read-out: Km AdoMet): 260 µM
Km ([4]; PSOMT1, read-out: Km Substrate): 17 µM
methylated by PSOMT1 (radioassay, in words) ([4]; one of forty substrates tested): methylates
